Reference: publication PMC9017385, “Pharmacokinetics of Temsavir, the Active Moiety of the HIV-1 Attachment Inhibitor Prodrug, Fostemsavir, Coadministered with Cobicistat, Etravirine, Darunavir/Cobicistat, or Darunavir/Ritonavir with or without Etravirine in Healthy Participants” (Antimicrobial Agents and Chemotherapy, 2022)

Legend:
[1] = Study 206281: plasma PK of DRV, RTV and ETR with or without FTR
Method: (§1) Participants were randomly assigned to one of three cohorts per a computer-generated randomization scheme. • Cohort 1: Participants received FTR at 600 mg twice daily (BID) on days 1 to 4. […] After a 2-day washout (days 5 and 6), participants received ETR at 200 mg BID for 10 days (days 7 to 16) followed by FTR at 600 mg BID with ETR at 200 mg BID for 10 days (days 17 to 26). • Cohort 3: Participants received FTR at 600 mg BID on days 1 to 4.
(§2) Eligible participants were admitted to the clinical facility on day −1 of each study. […] Physical examinations, measurements of vital signs, 12-lead ECGs, and clinical laboratory evaluations were performed, and participants were closely monitored for AEs and SAEs, throughout both studies.
(§3) (i) Bioanalytical methods and PK analysis. […] The lower limit of quantification and the upper limit of quantification for the analysis of TMR in both studies were 5 ng/mL and 5,000 ng/mL, respectively.
(§4) (ii) PK analysis. For both studies, individual participant PK parameter values were derived by noncompartmental methods with a validated PK analysis program using actual times. […] Cmax, Tmax, C12, and C24 were recorded directly from experimental observations and AUCtau was calculated by mixed log-linear trapezoidal summations.
(§5) SAS software version 9.2 (SAS Institute, Inc., Cary, North Carolina) was used for all statistical analyses, tabulations, and graphical presentations. For all treatment comparisons, a linear mixed-effect model was fitted to the log-transformed data with treatment as fixed effect and measurements within each participant as repeated measures, for use in the estimation of effects and the construction of CIs. Point estimates and 90% CIs for differences on the log scale were exponentiated to obtain estimates for GMRs and respective 90% CIs on the original scale. […] FTR administered alone was the reference treatment for both studies.

[2] = Study 206281: safety, adverse events; assay type: in vivo, human; details: A fostemsavir 600 mg BID, B DRV/r 600/100 mg BID, C ETR 200 mg BID
Method: as §1, §2

[3] = Study 206285: safety, adverse events
Method: Participants were sequentially enrolled to two cohorts. • Cohort 1: Participants received FTR at 600 mg BID on days 1 to 4. […] Participants then received FTR at 600 mg BID plus COBI at 150 mg QD on days 5 to 14 (Fig. 4B).

HIV-1 = test system: HIV-1; parameters: method as in PMID 32212519; details: through 8 days of FTR functional monotherapy with failing regimen; HTE HIV-1-infected participants, randomized cohort; P < 0.0001; cited from earlier work
P-glycoprotein (P-gp) = test system: P-glycoprotein (P-gp); parameters: method as in earlier work; details: preclinical studies; cited from earlier work
[4] = test system: breast cancer resistance protein (BCRP); details: not told; cited from earlier work
[5] = Study 206285: plasma PK of temsavir after FTR alone or with DRV/c or COBI; assay type: in vivo, human
Method: as §2, §3, §4, §5

[6] = QT prolongation at supratherapeutic FTR dose; assay type: in vivo, human; details: supratherapeutic FTR 2,400 mg BID
[7] = Study 206281: plasma PK of temsavir after FTR alone or with DRV/r, ETR, or DRV/r plus ETR; assay type: in vivo, human
Method: as §1, §2, §3, §4, §5

[8] = FTR with DRV/r + ETR vs DRV/r plus ETR, study 206281 cohort 3
[9] = DRV/r plus ETR with FTR vs DRV/r plus ETR, study 206281 cohort 3
[10] = ETR with FTR vs ETR alone, study 206281 cohort 2
[11] = FTR plus DRV/r plus ETR vs DRV/r plus ETR, study 206281 cohort 3
[12] = FTR with DRV/r vs DRV/r, study 206281 cohort 1
[13] = FTR coadministered with COBI vs FTR alone, study 206285 cohort 2
[14] = FTR coadministered with DRV and COBI (DRV/c) vs FTR alone, study 206285 cohort 1
[15] = FTR coadministered with DRV/r and ETR vs FTR alone, study 206281 cohort 3
[16] = FTR coadministered with DRV/r vs FTR alone, study 206281 cohort 1
[17] = FTR coadministered with ETR vs FTR alone, study 206281 cohort 2
[18] = FTR coadministered with ETR vs FTR alone, study 206281 cohort 2, listed as TMR

Question: Which “decrease in DRV AUCtau” value [1, 8] does the source give for `CC(C)CN(C[C@@H](O)[C@H](Cc1ccccc1)NC(=O)O[C@H]1CO[C@H]2OCC[C@H]21)S(=O)(=O)c1ccc(N)cc1` [DRV] here?
Answer: 6%

Question: And the “decrease in DRV C12” value [1, 8]?
Answer: 12%

Question: What about the “decrease in DRV Cmax” value [1, 8] of the same molecule?
Answer: 5%

Question: Which results are given for `Cc1cc(C#N)cc(C)c1Oc1nc(Nc2ccc(C#N)cc2)nc(N)c1Br` [ETR, reference compound]?
Answer: Abdominal distension [2]: 0 No. of patients (%); Aphthous stomatitis [2]: 0 No. of patients (%); Back pain [2]: 0 No. of patients (%); Diarrhea [2]: 0 No. of patients (%); Dizziness [2]: 0 No. of patients (%); Drug eruption [2]: 2 (14.3) No. of patients (%); Dry mouth [2]: 0 No. of patients (%); Fatigue [2]: 0 No. of patients (%); Headache [2]: 0 No. of patients (%); Muscle spasms [2]: 0 No. of patients (%); Nausea [2]: 0 No. of patients (%); Pruritus [2]: 0 No. of patients (%); Pruritus generalized [2]: 1 (7.1) No. of patients (%); Somnolence [2]: 0 No. of patients (%); Subjects with any AE [2]: 4 (28.6) No. of patients (%); increase in ETR AUCtau [1, 9]: 28%; increase in ETR C12 [1, 9]: 28%; increase in ETR Cmax [1, 9]: 18%; increase in ETR AUCtau [1, 10]: 11%; increase in ETR C12 [1, 10]: 14%; increase in ETR Cmax [1, 10]: 11%; AUC ([1]; human, plasma, oral, 200 mg): 7820 ng·h/mL; Cmax ([1]; human, plasma, oral, 200 mg): 846 ng/mL; concentration at 12 h ([1]; human, plasma, oral, 200 mg): 457 ng/mL

Question: For `COc1cnc(-n2cnc(C)n2)c2c1c(C(=O)C(=O)N1CCN(C(=O)c3ccccc3)CC1)cn2COP(=O)(O)O` [Fostemsavir], which Abdominal distension [2] is on record?
Answer: 0 No. of patients (%)

Question: What about the Aphthous stomatitis [2] of the same molecule?
Answer: 0 No. of patients (%)

Question: What about the Back pain [2] of the same molecule?
Answer: 0 No. of patients (%)

Question: And the Diarrhea [2]?
Answer: 0 No. of patients (%)

Question: What about the Dizziness [2] of the same molecule?
Answer: 0 No. of patients (%)

Question: And the Drug eruption [2]?
Answer: 0 No. of patients (%)

Question: And the Dry mouth [2]?
Answer: 1 (2.2) No. of patients (%)

Question: And the Fatigue [2]?
Answer: 0 No. of patients (%)

Question: And the Headache [2]?
Answer: 1 (2.2) No. of patients (%)

Question: What about the Muscle spasms [2] of the same molecule?
Answer: 0 No. of patients (%)

Question: What about the Nausea [2] of the same molecule?
Answer: 1 (2.2) No. of patients (%)

Question: And the Pruritus [2]?
Answer: 1 (2.2) No. of patients (%)

Question: And the Pruritus generalized [2]?
Answer: 0 No. of patients (%)

Question: And the Somnolence [2]?
Answer: 0 No. of patients (%)

Question: What about the “Subjects with any AE” value [2] of the same molecule?
Answer: 6 (13.0) No. of patients (%)

Question: And the Back pain ([3]; study 206285 cohort 1)?
Answer: 1 (6.3) No. of patients (%)

Question: And the Constipation ([3]; study 206285 cohort 1)?
Answer: 0 No. of patients (%)

Question: What about the Cough ([3]; study 206285 cohort 1) of the same molecule?
Answer: 0 No. of patients (%)

Question: And the Headache ([3]; study 206285 cohort 1)?
Answer: 3 (18.8) No. of patients (%)

Question: What about the Myalgia ([3]; study 206285 cohort 1) of the same molecule?
Answer: 0 No. of patients (%)

Question: And the Nausea ([3]; study 206285 cohort 1)?
Answer: 1 (6.3) No. of patients (%)

Question: And the Neutrophil count decreased ([3]; study 206285 cohort 1)?
Answer: 0 No. of patients (%)

Question: And the Oropharyngeal pain ([3]; study 206285 cohort 1)?
Answer: 2 (12.5) No. of patients (%)

Question: What about the Pain ([3]; study 206285 cohort 1) of the same molecule?
Answer: 0 No. of patients (%)

Question: And the “Participants with AE” value ([3]; study 206285 cohort 1)?
Answer: 6 (37.5) No. of patients (%)

Question: And the Vomiting ([3]; study 206285 cohort 1)?
Answer: 1 (6.3) No. of patients (%)

Question: What about the WBC decreased ([3]; study 206285 cohort 1) of the same molecule?
Answer: 0 No. of patients (%)

Question: And the Back pain ([3]; study 206285 cohort 2)?
Answer: 1 (6.3) No. of patients (%)

Question: And the Constipation ([3]; study 206285 cohort 2)?
Answer: 0 No. of patients (%)

Question: And the Cough ([3]; study 206285 cohort 2)?
Answer: 0 No. of patients (%)

Question: And the Headache ([3]; study 206285 cohort 2)?
Answer: 1 (6.3) No. of patients (%)

Question: What about the Myalgia ([3]; study 206285 cohort 2) of the same molecule?
Answer: 0 No. of patients (%)

Question: What about the Nausea ([3]; study 206285 cohort 2) of the same molecule?
Answer: 0 No. of patients (%)

Question: What about the Neutrophil count decreased ([3]; study 206285 cohort 2) of the same molecule?
Answer: 0 No. of patients (%)

Question: What about the Oropharyngeal pain ([3]; study 206285 cohort 2) of the same molecule?
Answer: 0 No. of patients (%)

Question: What about the Pain ([3]; study 206285 cohort 2) of the same molecule?
Answer: 0 No. of patients (%)

Question: What about the “Participants with AE” value ([3]; study 206285 cohort 2) of the same molecule?
Answer: 3 (18.8) No. of patients (%)

Question: And the Vomiting ([3]; study 206285 cohort 2)?
Answer: 0 No. of patients (%)

Question: What about the WBC decreased ([3]; study 206285 cohort 2) of the same molecule?
Answer: 0 No. of patients (%)

Question: And the “adjusted mean decline in HIV-1 RNA” value (HIV-1)?
Answer: 0.8 log10 copies/mL

Question: With `CC(C)c1nc(CN(C)C(=O)N[C@H](C(=O)N[C@@H](Cc2ccccc2)C[C@H](O)[C@H](Cc2ccccc2)NC(=O)OCc2cncs2)C(C)C)cs1` [RTV] as the molecule, how does the “increase in RTV AUCtau” value [1, 11] read?
Answer: 9%

Question: And the “increase in RTV C12” value [1, 11]?
Answer: 7%

Question: What about the “increase in RTV Cmax” value [1, 11] of the same molecule?
Answer: 14%

Question: What about the “change in RTV Cmax” value [1, 12] of the same molecule?
Answer: no meaningful change

Question: And the “increase in RTV AUCtau” value [1, 12]?
Answer: 15%

Question: What about the “increase in RTV C12” value [1, 12] of the same molecule?
Answer: 19%

Question: Which “P-glycoprotein (P-gp) substrate” value (P-glycoprotein (P-gp)) does the source give for `COc1cnc(-n2cnc(C)n2)c2[nH]cc(C(=O)C(=O)N3CCN(C(=O)c4ccccc4)CC3)c12` [Temsavir] here?
Answer: substrate

Question: And the BCRP substrate [4]?
Answer: substrate

Question: And the “increase in TMR AUCtau” value [5, 13]?
Answer: 93%

Question: And the “increase in TMR C12 (Ctau in abstract)” value [5, 13]?
Answer: 136%

Question: What about the “increase in TMR Cmax” value [5, 13] of the same molecule?
Answer: 71%

Question: And the “increase in TMR AUCtau” value [5, 14]?
Answer: 97%

Question: What about the “increase in TMR C12 (Ctau in abstract)” value [5, 14] of the same molecule?
Answer: 124%

Question: And the “increase in TMR Cmax” value [5, 14]?
Answer: 79%

Question: And the “fold by which exposures with TMR Cmax-driven QT prolongation exceed geometric mean TMR exposures of the current studies” value [6]?
Answer: > 2 fold

Question: And the “increase in TMR AUCtau” value [7, 15]?
Answer: 34%

Question: And the “increase in TMR C12 (Ctau in abstract)” value [7, 15]?
Answer: 33%

Question: And the “increase in TMR Cmax” value [7, 15]?
Answer: 53%

Question: And the “increase in TMR AUCtau” value [7, 16]?
Answer: 63%

Question: And the “increase in TMR C12 (Ctau in abstract)” value [7, 16]?
Answer: 88%

Question: And the “increase in TMR Cmax” value [7, 16]?
Answer: 52%

Question: And the “decrease in TMR exposures” value ([7]; FTR coadministered with ETR)?
Answer: approximately 50%

Question: What about the “decrease in TMR AUCtau” value [7, 17] of the same molecule?
Answer: 50%

Question: What about the “decrease in TMR C12 (Ctau in abstract)” value [7, 17] of the same molecule?
Answer: ~50%

Question: What about the “decrease in TMR Cmax” value [7, 17] of the same molecule?
Answer: ~50%

Question: What about the “decrease in TMR C12 (Ctau in abstract)” value [7, 18] of the same molecule?
Answer: 52%

Question: And the “decrease in TMR Cmax” value [7, 18]?
Answer: 48%
